Results taken from patent US20150313906A1, “COMBINATION” (GLAXOSMITHKLINE LLC, priority 2012, published 2015).
Like-named read-outs stand apart in the source and are kept apart here.

What was measured:
[1] = system: SU-DHL-6, a DLBCL line harboring a Y641N mutation in EZH2; test: DLBCL cell growth (CellTiter-Glo) with BCL-2 inhibitor after Compound A pre-treatment, SU-DHL-6; assay type: cell-based; settings: for IC50: Homo sapiens, read-out: gIC50
Experimental: (§1) Plates were incubated for 6 days at 37° C. in 5% CO2. Cells were then lysed with CellTiter-Glo (CTG) (Promega) according to the manufacturer's protocol and chemiluminescent signal was detected with a TECAN Safire2 microplate reader. CTG estimates cell number through detection of cellular ATP levels. In addition, an untreated plate of cells was harvested at the time of compound addition (T0) to quantify the starting number of cells. CTG values were expressed as a percent of the T0 value and plotted against compound concentration.

[2] = system: KARPAS-422, a DLBCL line harboring a Y641N mutation in EZH2; test: DLBCL cell growth (CellTiter-Glo) with BCL-2 inhibitor after Compound A pre-treatment, KARPAS-422; settings: for IC50: read-out: gIC50
Experimental: as §1

[3] = system: Farage, a DLBCL line harboring WT EZH2; test: DLBCL cell growth (CellTiter-Glo) with BCL-2 inhibitor after Compound A pre-treatment, Farage; assay type: cell-based; settings: for IC50: read-out: gIC50
Experimental: as §1

[4] = system: WSU-DLCL-2, a DLBCL line harboring a Y641F mutation in EZH2; test: DLBCL cell growth (CellTiter-Glo) with BCL-2 inhibitor after Compound A pre-treatment, WSU-DLCL2; assay type: cell-based; settings: Homo sapiens, read-out: gIC50
Experimental: as §1

[5] = 144 h, SU-DHL-6, BCL2 inhibitor alone (no Compound A), 6 days
[6] = SU-DHL-6, Compound A 250 nM 72 h pre-treatment then 6 day co-treatment
[7] = KARPAS-422, BCL2 inhibitor alone (no Compound A), 6 days
[8] = KARPAS-422, Compound A 100 nM 72 h pre-treatment then 6 day co-treatment
[9] = KARPAS-422, Compound A 500 nM 72 h pre-treatment then 6 day co-treatment
[10] = 144 h, BCL2 inhibitor alone (no Compound A), 6 days
[11] = Compound A 1 μM 72 h pre-treatment then 6 day co-treatment
[12] = WSUDLCL2, 144 h, WSU-DLCL2, BCL2 inhibitor alone (no Compound A), 6 days
[13] = WSUDLCL2, WSU-DLCL2, Compound A 250 nM 72 h pre-treatment then 6 day co-treatment

Structure (SMILES) | IC50 [1, 5] [nM] | IC50 [1, 6] [nM] | Fold shift in potency over ABT-263 alone ([1]; SU-DHL-6, Compound A 250 nM) | Fold shift in potency over ABT-263 alone ([2]; KARPAS-422, Compound A 100 nM) | Fold shift in potency over ABT-263 alone ([2]; KARPAS-422, Compound A 500 nM) | IC50 [2, 7] [nM] | IC50 [2, 8] [nM] | IC50 [2, 9] [nM] | IC50 [3, 10] [nM] | Fold shift in potency over ABT-263 alone ([3]; Compound A 1 μM) | IC50 [3, 11] [nM] | IC50 [4, 12] [nM] | IC50 [4, 13] [nM] | Fold shift in potency over ABT-737 alone ([1]; SU-DHL-6, Compound A 250 nM) | Fold shift in potency over ABT-737 alone ([2]; KARPAS-422, Compound A 100 nM) | Fold shift in potency over ABT-737 alone ([2]; KARPAS-422, Compound A 500 nM) | Fold shift in potency over ABT-737 alone ([3]; Compound A 1 uM)
CC1(C)CCC(c2ccc(Cl)cc2)=C(CN2CCN(c3ccc(C(=O)NS(=O)(=O)c4ccc(N[C@H](CCN5CCOCC5)CSc5ccccc5)c(S(=O)(=O)C(F)(F)F)c4)cc3)CC2)C1 [ABT-263] | 518 | 17 | 31 | 2.8 | 423 | 169 | 60 | 0.4 | 455 | 43 | 11 | 464 | 1150 | – | – | – | –
CN(C)CC[C@H](CSc1ccccc1)Nc1ccc(S(=O)(=O)NC(=O)c2ccc(N3CCN(Cc4ccccc4-c4ccc(Cl)cc4)CC3)cc2)cc1[N+](=O)[O-] [ABT-737] | 1330 | 110 | – | – | – | 334 | 78 | 1.1 | 4710 | – | 246 | 1410 | 971 | 12 | 4.3 | 304 | 19
